Test results published in patent US20240197682A1, “METHOD FOR TREATING NEUROLOGICAL DISEASES USING SUPRAMOLECULE POLYMER THERAPEUTICS” (The Regents of the University of California, priority 2022, published 2024).
Like-named read-outs stand apart in the source and are kept apart here.

How the values were obtained:
[1] = target: T1, YFP-tagged full length 0N4R-Tau P301S aggregates seeded by 416-AD11A lysate (T24 cells) (Homo sapiens, UniProt P10636, P618S); test: Tau-AD high throughput screening (counter screen) in T24 cells; type: cell-based; conditions: T24 cells transfected with 416-AD11A lysate
T1 construct: C-terminally YFP-tagged full length 0N4R-Tau carrying a P301S mutation; expressed in transfected cells
T1 sequence (P10636 1-383 isoform P10636-6 P243S): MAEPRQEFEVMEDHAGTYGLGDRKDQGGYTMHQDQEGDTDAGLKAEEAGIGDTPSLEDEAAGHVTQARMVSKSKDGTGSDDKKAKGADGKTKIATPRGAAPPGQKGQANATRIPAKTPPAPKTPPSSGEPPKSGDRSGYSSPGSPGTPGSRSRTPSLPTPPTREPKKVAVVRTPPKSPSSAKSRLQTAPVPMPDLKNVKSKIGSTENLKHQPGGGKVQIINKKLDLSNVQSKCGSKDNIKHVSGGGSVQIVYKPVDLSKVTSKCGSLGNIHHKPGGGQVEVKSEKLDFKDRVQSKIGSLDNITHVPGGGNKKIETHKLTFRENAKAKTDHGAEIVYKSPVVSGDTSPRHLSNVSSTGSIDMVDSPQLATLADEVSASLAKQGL
Experimental: A fragment of the Middle Tempral Gyrus (MTG) from Alzheimer's Disease (AD) patient 2217 was resuspended in 9 volumes of PBS (ml/g of brain) and homogenized 3×12 seconds using a probe homogenizer (Thomas Scientific) with disposable Omni Tip plastic homogenizing probes (Thomas Scinetific Cat No 3409Y77) to generate a 10% brain homogenate (10% AD11-BH). The 10% AD11-BH was clarified of insoluble debris by centrifugation at 800×g for 5 minutes. The resulting supernatant was collected and the protein concentration of this clarified BH (AD11-CBH) was determined by bicinchoninic acid assay (BCA) (Thermo Fisher Cat No. 23227). HEK293 cells stably expressing a C-terminally Clover-tagged truncated 4R-Tau^243-382 transgene containing the P301L and V337M mutations and a C-terminally Ruby-tagged truncated 3R-Tau^243-382 transgene containing the L266V and V337M mutations (128/139 cells) were transfected with the AD11-CBH using lipofectamine 2000 (LF2K) (Thermo Fisher Cat No. 11668500). Briefly, 0.32 μl of LF2K were diluted in 5 μl Opti-MEM (Thermo Scientific Cat No 31985070) per well of a 384-well plate and incubated for 5 min at room temperature (RT). This mixture was added to 0.32 μg of AD11-CBH diluted in 5 μl of PBS per well of a 384-well plate and vortex briefly. The transfection mixture was incubated at room temperature for 90 min. The transfection complexes were subsequently added to a single well of a 384-well plate containing 3500 128/139 cells. After 3 days the cells were harvested, counted and plated at a density of 1 cell/well in a 96-well plate. A clonal cell line containing Clover and Ruby positive Tau aggregates was selected and termed 416-AD11A cells. Following the expansion of these 416-AD11A cells, a cell lysate was prepared by freeze/thaw. The cells from a confluent T175 flask were harvested in 1 ml of PBS containing 1× protease inhibitor cocktail by scraping. The cell suspension was subjected to 4 cycles of freezing in liquid nitrogen for 5 minutes followed by thawing at 37° C. for 5 minutes. The resulting cell lysate was centrifuged at 2000 RPM for 10 minutes to remove the cell debris and the protein concentration of the resulting 416-AD11A lysate was determined by BCA assay and aliquots frozen for future use.
HEK293 cells stably expressing C-terminally YFP-tagged full length 0N4R-Tau carrying a P301S mutation (T24 cells) are plated at a density of 4000 cells per well of a 384-well black walled, clear bottom plate (Greiner Cat No 5678-1091Q) in 60 μl of complete DMEM (DMEM (Corning Cat No 10-013-CV), 10% FBS (VWR Cat No 97068-085, 0.5% Penicilin/streptomycin (Gibco Cat No 15140-122)) containing 0.1 μg/ml Hoechst Dye (Thermo Scientific Cat No H3570). Transfection complexes are prepared by diluting 0.15 μg of 416-AD11A lysate or HEK lysate in 5 μl of PBS per well to be transfected and 0.15 μl of Lipofectamine 2000 (LF2K) (ThermoFisher Cat No 11668500) in 5 μl of Opti-MEM per well to be transfected in separate tubes. The pre-diluted 416-AD11A or HEK lysates and LF2K are subsequently mixed and allowed to incubate for 90 minutes at RT. A 10 μl aliquot of the 416-AD11A or HEK transfection complexes is added to the appropriate wells of the 384-well plate containing the T24 cells using the Bravo liquid handling platform (Agilent). Wells A23-P24 of the 384-well plate are transfected with HEK lysate to act as a reference point for spontaneous aggregation of 0N4R^P301S and for transfection related toxicity. The dilution of test compounds is performed using the Bravo liquid handling platform (Agilent). The control is DMSO in the absence of any test compound. Briefly, 1 μl of each test compound (5 mM stock) in the 384-well test plate was transferred to a 384-well plate (Greiner Cat No 781280) containing 61.5 μl of complete DMEM to generate a working stock of compounds at 80 μM. […]

[2] = Parallel Artificial Membrane Permeability Assay (PAMPA); type: in vitro ADME; conditions: for PAMPA: P_app: 200 uM test compound, 4 hr; for Papp at 4 hr, 200 uM: PAMPA, read-out: PAMPA: P_app
Experimental: 5 uL of 1% lecithin (VWR 0579) dissolved in n-dodecane (Sigma Aldrich D221104) was applied to each well of a MultiScreen IP PAMPA filter plate (Millipore MAIPSWU10) and allowed to equilibrate for 5 minutes. 300 uL of PBS was added to the acceptor plate and 150 uL of 200 uM test compound dissolved in PBS and 30% ethanol was added to the donor wells before incubating the donor plate in the acceptor plate for 4 hr at 500 rpm. 100 uL was sampled from the donor and acceptor wells and the concentrations were measured by liquid chromatography-mass spectrometry (SCIEX 4500) or UV-VIS plate reader (BMG).

tau fibrils = tau fibrils (Homo sapiens, UniProt P10636); conditions: cited from earlier work
Chain of tau fibrils (P10636 1-441 isoform P10636-8): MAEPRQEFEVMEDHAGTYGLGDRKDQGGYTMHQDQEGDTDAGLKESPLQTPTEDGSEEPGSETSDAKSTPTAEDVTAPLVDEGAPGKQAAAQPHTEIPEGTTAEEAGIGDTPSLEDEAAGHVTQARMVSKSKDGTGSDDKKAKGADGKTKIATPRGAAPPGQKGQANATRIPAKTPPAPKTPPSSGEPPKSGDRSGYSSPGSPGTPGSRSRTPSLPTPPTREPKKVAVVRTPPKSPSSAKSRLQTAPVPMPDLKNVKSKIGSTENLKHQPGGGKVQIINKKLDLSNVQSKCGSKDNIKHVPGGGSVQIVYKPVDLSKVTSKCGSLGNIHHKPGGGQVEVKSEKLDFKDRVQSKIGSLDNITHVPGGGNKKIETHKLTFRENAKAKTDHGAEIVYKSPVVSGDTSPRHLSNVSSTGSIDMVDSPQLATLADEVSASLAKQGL

CC(=O)Nc1ncc2c(-c3ccccc3)nn(CC3CCCCC3)c2n1 [Compound 280]
AD Tau Aggregates (% control) [1]: 90 % control
PAMPA: P_app ([2]; pH 5.0): 19.5 ×10e−6 cm/sec
PAMPA: P_app ([2]; pH 7.4): 19.5 ×10e−6 cm/sec

CC(=O)Nc1ncc2c(-c3ccccc3)nn(Cc3ccncc3)c2n1 [Compound 279]
AD Tau Aggregates (% control) [1]: 92 % control
PAMPA: P_app ([2]; pH 5.0): 44.7 ×10e−6 cm/sec
PAMPA: P_app ([2]; pH 7.4): >50 ×10e−6 cm/sec

CCC(=O)Nc1ncc2c(-c3ccccc3)nn(Cc3ccc(OC)cc3)c2n1 [Compound 269]
AD Tau Aggregates (% control) [1]: 100 % control
PAMPA: P_app ([2]; pH 5.0): 19.1 ×10e−6 cm/sec
PAMPA: P_app ([2]; pH 7.4): 26.7 ×10e−6 cm/sec

Cc1ccnn1-c1nc(-n2cc3ccn(C(F)(F)F)c3nc2=O)c(-c2ccc(F)cc2)o1 [Compound 240]
AD Tau Aggregates (% control) [1]: 95 % control
PAMPA: P_app ([2]; pH 7.4): 2.41 ×10e−6 cm/sec

CNC(=O)c1ncc2c(-c3ccccc3Cl)nn(-c3ccc(F)cc3)c2n1 [Compound 244]
AD Tau Aggregates (% control) [1]: 100 % control
PAMPA: P_app ([2]; pH 5.0): >50 ×10e−6 cm/sec
PAMPA: P_app ([2]; pH 7.4): 45 ×10e−6 cm/sec

FCCC1CCN(c2ccn3c(n2)nc2ccccc23)CC1 [GTP-1]
IC50 (tau fibrils; GTP-1, read-out: measured IC50): 22 nM
Kd (tau fibrils; tau PET tracer GTP-1, estimated Kd): 11 nM

Cc1ccn(-c2nc(-n3cc4ccn(C(F)(F)F)c4nc3=O)c(-c3ccc(F)cc3)o2)n1 [Compound 241]
AD Tau Aggregates (% control) [1]: 98 % control
PAMPA: P_app ([2]; pH 7.4): 1.36 ×10e−6 cm/sec

CC(=O)Nc1ncc2c(-c3ccccc3)nn(Cc3cncc(F)c3)c2n1 [Compound 267]
AD Tau Aggregates (% control) [1]: 91 % control
PAMPA: P_app ([2]; pH 7.4): 5.98 ×10e−6 cm/sec

O=C(Cn1cc(-c2ccoc2)c(=O)c2ccc(N3CCCC3)cc21)Nc1ccccc1C(F)(F)F [Compound 149, 2-[3-(furan-3-yl)-4-oxo-7-(pyrrolidin-1-yl)-1,4-dihydroquinolin-1-yl]-N-[2-(trifluoromethyl)phenyl]acetamide]
AD Tau Aggregates (% control) [1]: 100 % control
Papp at 4 hr, 200 uM ([2]; pH 5.0, 200 uM test compound): 16.9 ×10⁻⁶ cm/s
Papp at 4 hr, 200 uM ([2]; pH 7.4, 200 uM test compound): 11.2 ×10⁻⁶ cm/s

CNC(=O)c1ncc2c(-c3cc4ccccc4cn3)nn(Cc3ccccc3)c2n1 [Compound 256, 1-benzyl-3-(isoquinolin-3-yl)-N-methyl-1H-pyrazolo[3,4-d]pyrimidine-6-carboxamide]
AD Tau Aggregates (% control) [1]: 100 % control
Papp at 4 hr, 200 uM ([2]; pH 5.0, 200 uM test compound): > 50 ×10⁻⁶ cm/s
PAMPA: P_app ([2]; pH 7.4): >50 ×10e−6 cm/sec

CNC(=O)c1ncc2c(C#Cc3ccccc3)nn(-c3ccc(OC(F)F)cc3)c2n1 [Compound 290, 1-(4-(difluoromethoxy)phenyl)-N-methyl-3-(phenylethynyl)-1H-pyrazolo[3,4-d]pyrimidine-6-carboxamide]
AD Tau Aggregates (% control) [1]: 95 % control
Papp at 4 hr, 200 uM ([2]; pH 5.0, 200 uM test compound): 16.5 ×10⁻⁶ cm/s
Papp at 4 hr, 200 uM ([2]; pH 7.4, 200 uM test compound): 39.3 ×10⁻⁶ cm/s

CNC(=O)c1ncc2c(-c3ccccc3)nn(Cc3ccccc3)c2n1 [Compound 248]
AD Tau Aggregates (% control) [1]: 95 % control
PAMPA: P_app ([2]; pH 5.0): 46.6 ×10e−6 cm/sec
PAMPA: P_app ([2]; pH 7.4): >50 ×10e−6 cm/sec

CC(=O)Nc1ncc2c(-c3ccccc3C)nn(Cc3ccccc3)c2n1 [Compound 266]
AD Tau Aggregates (% control) [1]: 98 % control
PAMPA: P_app ([2]; pH 5.0): >50 ×10e−6 cm/sec
PAMPA: P_app ([2]; pH 7.4): >50 ×10e−6 cm/sec
